The text below walks through data of PMC8228537, “Acrylonitrile Derivatives against Trypanosoma cruzi: In Vitro Activity and Programmed Cell Death Study” (Pharmaceuticals, 2021).

The nature of data set [1]: Cytotoxicity, alamarBlue, murine macrophages. The data set is classed as cell-based. As to conditions: mouse, J774A.1 murine macrophage cell line, J774A.1 murine macrophages, mean ± SD. How it is done:
(§1) The cytotoxicity was evaluated against murine macrophages (J774A.1) using the same method mentioned in the antiparasitic assay, based on the alamarBlue Cell Viability Reagent®. In a sterile 96-well plate, 10^4 cells per well were added, then, after the complete adhesion, serial dilutions of the 32 compounds, using a deep well plate, and a 10% of alamarBlue® were joined.

In data set [2] the test system is epimastigotes of Trypanosoma cruzi. As to the kind of experiment: Mitochondrial membrane potential analysis (JC-1). The data set is classed as cell-based. As to conditions: 24 h with the IC90, JC-1, Tukey test, Figure 2. The procedure:
The detection of variations in the mitochondrial membrane potential was evaluated with the JC-1 Mitochondrial Membrane Potential Assay Kit® (Cayman Chemical, Ann Arbor, MI, USA). In a 24-well plate, 500 µL of epimastigotes at 10^6 parasites per ml were added with the inhibitory concentration 90 (IC90) of the compounds. After 24 h of incubation at 26 °C, the epimastigotes were centrifuged (3000 rpm, 10 min, 4 °C), resuspended in 50µL of JC-1 buffer and added to a black 96-well plate with 5 µL of JC-1. After 30 min of incubation at 26 °C, the green and red fluorescence were measured using an EnSpire Multimode Plate Reader® (PerkinElmer). Results were expressed in percentage relative to negative control (without treatment) of the ratio 595/535 nm (J-aggregates/J-monomers).

For data set [3] the test system is unchanged. As to the kind of experiment: ATP level analysis (CellTiter-Glo). The data set is classed as cell-based. As to conditions: 24 h with the IC90, CellTiter-Glo, Figure 3. How it is done:
Variations in the level of ATP were measured with the CellTiter-Glo® Luminescent Cell Viability Assay (Promega, WI, USA). […] Then, in a white 96-well plate, the epimastigotes were resuspended in 25µL of culture media and mixed with 25 µL of the kit. After 10 min of incubation at room temperature, the luminescence was measured using an EnSpire Multimode Plate Reader® (PerkinElmer). The results were expressed in percentage of production of ATP level relative to the negative control (without any treatment).

In data set [4] the test system is epimastigote stage of T. cruzi. The data set can be described thus: Antiparasitic activity, alamarBlue, epimastigotes. The data set is classed as cell-based, Trypanosoma cruzi. As to conditions: for IC50: 72 h, epimastigote stage of T. cruzi (Y strain), alamarBlue, mean ± SD, NA: not active; for Selectivity index (SI): ratio of CC50 for J774A.1 and IC50 for epimastigotes of T. cruzi. How it is done: Epimastigotes of Trypanosoma cruzi (Y strain) were used in this study and cultured in liver infusion tryptose (LIT) medium supplemented with 10% of foetal bovine serum (FBS) at 26 °C.
In a sterile 96-well plate, a serial dilution of acrylonitriles was carried out in LIT medium supplemented with 10% FBS with a final volume of 100 µL. Parasites were added to wells to reach a concentration of 10^5 parasites per well. Finally, a 10% of alamarBlue Cell Viability Reagent® (ThermoFisher Scientific, Waltham, MA, USA) was added into each well, and the plate was incubated for 72 h at 26°C.

The test system of data set [5] is epimastigotes of Trypanosoma cruzi. As to the kind of experiment: Chromatin condensation analysis (Hoechst 33342/propidium iodide). It counts as cell-based. As to conditions: 24 h with the IC90, Figure 1. How it is done:
Vybrant® Apoptosis Assay Kit n°5, Hoechst 33342/Propidium Iodide (ThermoFisher Scientific, MA, USA) was used to determinate the chromatin condensation of the treated parasites. […] Thereafter, Hoechst (5 µg/mL) and propidium iodide (PI) (1 µg/mL) were added and incubated for 20 min at 26 °C. The EVOS® FL Cell Imaging System (ThermoFisher Scientific, MA, USA) was used to capture the fluorescence images, using the DAPI (Hoechst) and RFP (PI) light cubes.

Data set [6] has the same test system. As to the kind of experiment: Plasmatic membrane permeability analysis (SYTOX Green). The data set is classed as cell-based. As to conditions: 24 h with the IC90, Figure 4. The procedure:
The use of the dye SYTOX® Green reagent means that when the plasmatic permeability is altered, it is possible for the reagent to go inside the cells, joining the parasitic DNA and emitting an intense green fluorescence.
To determine the plasmatic membrane permeability, SYTOX® Green nucleic acid stain fluorescent dye (ThermoFisher Scientific, MA, USA) was used. […] The pellet was resuspended in a 50 µL staining buffer and the Sytox® Green at 1 µM (final concentration). After 15 min of incubation at room temperature, parasites were analyzed. Fluorescence pictures were taken with the EVOS® FL Cell Imaging System (ThermoFisher Scientific, MA, USA).

The test system is the same in data set [7]. As to the kind of experiment: Reactive oxygen species analysis (CellROX Deep Red). It counts as cell-based. As to conditions: 24 h with the IC90, Figure 5. How it is done:
The CellROX® reagent emits red fluorescence in the presence of reactive oxygen species.
The oxidative stress was measured with the CellROX® Deep Red Reagent (ThermoFisher Scientific, MA, USA). […] Finally, the fluorescence was analyzed using the EVOS® FL Cell Imaging System (ThermoFisher Scientific, MA, USA) with the Cy5 light cube.

Data set [8] relates to Trypanosoma cruzi. As to the kind of experiment: Programmed cell death study (overall conclusion from the PCD assays). The data set is classed as cell-based. As to conditions: overall conclusion from ROS, mitochondrial potential, ATP and chromatin condensation assays. How it is done: Different assays were performed to elucidate which pathways could be triggered by these acrylonitriles. The most probable cellular process induced by our compounds is the apoptosis or programmed cell death (PCD), in which the inflammatory response is weakly activated, in contrast to a necrotic event, where the inflammatory response is strong.

Data set [9] relates to J774A.1 murine macrophage cell line. As to the kind of experiment: Cytotoxicity, alamarBlue, murine macrophages. As to conditions: J774A.1 murine macrophages, 24 h, mean ± SD. It counts as cell-based. The procedure:
as §1

Entries after “also recorded” stand apart in the source; their conditions may differ.

For the compound `O=C(Cn1ccnc1[N+](=O)[O-])NCc1ccccc1` [BENZ, benznidazole, reference compound], the CC50 at 24 h in data set [1] is > 1500 µM. The “Variations in the mitochondrial membrane potential relative to negative control” value in [2] is “decreasing the inter-membrane potential of the mitochondria”. For the same compound, in [3], the “Percentage of ATP level relative to untreated control” value came out at 18.26%.

For `N#C/C=C/C(=O)Oc1ccccc1` [Compound Q7, (E)-phenyl 3-cyanoacrylate], in [4] (Trypanosoma cruzi), it took 15.5 ± 1.27 µM to reach half-maximal inhibition (IC50). The compound further had a CC50 at 24 h in data set [1] of 46.5 ± 3.81 µM. In data set [5], the “Chromatin condensation (Hoechst 33342 blue fluorescence)” value was “intense blue fluorescence in the nucleus, indicating chromatin condensation” and the “Dead cells (propidium iodide red fluorescence)” value was “red fluorescence, indicating already dead cells”. The “Percentage of ATP level relative to untreated control” value in data set [3] is recorded as 32.68%. Moreover, in data set [6], the “Plasma membrane permeability (SYTOX Green fluorescence)” value is listed as “more remarkable”. Moreover, in data set [7], the “Reactive oxygen species (CellROX Deep Red fluorescence)” value was “less intense fluorescence”. The “Induction of programmed cell death (apoptosis-like process)” value in data set [8] is “robust evidence of inducing all the physiological features of an apoptosis-like process; also recorded: shown to induce an apoptosis-like cell death”.

For the compound `N#CC=CC(=O)N1C(=O)OC[C@H]1c1ccccc1` [Compound Q32, (Z)-(R,Z)-4-Oxo-4-(2-oxo-4-phenyloxazolidin-3-yl)but-2-enenitrile], the “Selectivity index (SI)” value in data set [4] is listed as 0.78. This compound came in with a 50% cytotoxic concentration (CC50) in [9] of 2.89 ± 0.74 µM.

In data set [4] (Trypanosoma cruzi), `CON(C)C(=O)/C=C/C#N` [Compound Q27, (E)-3-Cyano-N-methoxy-N-methylacrylamide] registered an IC50 of 291 ± 47 µM. In addition, the CC50 at 24 h in [1] came out at 480 ± 29.1 µM. For the same compound, in data set [5], the “Dead cells (propidium iodide red fluorescence)” value is “red fluorescence, indicating already dead cells”. Moreover, the “Percentage of ATP level relative to untreated control” value in data set [3] was < 1%. Further, the “Plasma membrane permeability (SYTOX Green fluorescence)” value in data set [6] is “more remarkable”. Also, the “Reactive oxygen species (CellROX Deep Red fluorescence)” value in data set [7] is “less intense fluorescence”. Besides, the “Induction of programmed cell death (apoptosis-like process)” value in [8] is reported as “robust evidence of inducing all the physiological features of an apoptosis-like process”.

With `N#CC=CC(=O)N1C(=O)OC[C@H]1c1ccccc1` [Compound Q31, (E)-(R,E)-4-Oxo-4-(2-oxo-4-phenyloxazolidin-3-yl)but-2-enenitrile], in data set [4], it took 20.38 ± 0.13 µM to reach half-maximal inhibition (IC50) and the “Selectivity index (SI)” value amounted to 0.51. The same compound registered a CC50 in [9] of 10.4 ± 1.06 µM.
